Publication PMC10786919, “Design-rules for stapled peptides with in vivo activity and their application to Mdm2/X antagonists” (Nature Communications, 2024)
Values after ≈ are worked out from the molar mass of the structure shown. Like-named read-outs stand apart in the source and are kept apart here. Positions of bridges follow the written chain, without caps; N, C: chain ends. Non-standard residues stand in square brackets, D forms with d. Residues, ends and D or L forms follow the SMILES beside them. Lys(N3) = [N-]=[N+]=NCCCC[C@H](N)C(=O)O; R8 = C=CCCCCCC[C@@](C)(N)C(=O)O; Cba = N[C@@H](CC1CCC1)C(=O)O; S5 = C=CCCC[C@](C)(N)C(=O)O; βAla = NCCC(=O)O

Experiments:
[1] = tested on: p53 responsive β-lactamase reporter in HCT116 cells; test: cells; assay type: cell-based
Summary of the method: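 HCT116 cells stably carrying a p53-responsive β-lactamase reporter, seeded at 8000 cells/well, with 0.5% DMSO final. Reporter activity read by ToxBLAzer Dual Screen. Values are geometric means of at least three biological replicates.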

[2] = Lactate dehydrogenase (LDH) release assay; assay type: cell-based
Summary of the method: (§1)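 Membrane damage measured as lactate dehydrogenase release (CytoTox-ONE kit) from p53-responsive β-lactamase reporter HCT116 cells plated at 8000 per well. Final DMSO 0.5%; geometric mean reported from a minimum of three biological replicates.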

HCT116 cells = test: Lactate dehydrogenase (LDH) release assay; assay type: cell-based
Summary of the method: as §1

[3] = tested on: Jump-In T-REx CHO-K1 BLA cells; test: cells; assay type: cell-based
[4] = Circular dichroism (CD) helicity; assay type: physicochemical
Procedure: A total of 5 µL of the 10 mM stock peptide was mixed with 45 µL of 100% methanol, and dried for 2 h in the SpeedVac concentrator (Thermo Scientific). The dried peptide was reconstituted in a buffer (1 mM Hepes pH 7.4 and 5% methanol) to a concentration of 1 mM. The peptide sample was placed in a quartz cuvette with a path length of 0.2 cm. The peptide concentration was determined by the absorbance of the peptide at […]. The CD spectrum was recorded from 300 to 190 nm using the Chirascan-plus qCD machine (Applied Photophysics, Surrey, UK), at 25 °C. All experiments were done in duplicates. The CD spectrum was converted to mean residue ellipticity before deconvolution and estimation of the secondary structure components of the peptide using the CDNN software (distributed by Applied Photophysics). Measurements were taken at least twice and were reported as arithmetic means.

human Mdm2 1–125 = molecular target: T1, human Mdm2 1–125 (Homo sapiens, UniProt Q00987); test: Mdm2 binding by competitive fluorescence anisotropy assay (FP binding); conditions: read-out: FP binding assay KD
T1 construct: GST (N); His6 (internal); TEV cleavage site (ENLYFQG) (internal); made in house; host or cells: BL21 (DE3) Rosetta T1R Escherichia coli
T1 sequence (Q00987 with tags, fused parts or gaps): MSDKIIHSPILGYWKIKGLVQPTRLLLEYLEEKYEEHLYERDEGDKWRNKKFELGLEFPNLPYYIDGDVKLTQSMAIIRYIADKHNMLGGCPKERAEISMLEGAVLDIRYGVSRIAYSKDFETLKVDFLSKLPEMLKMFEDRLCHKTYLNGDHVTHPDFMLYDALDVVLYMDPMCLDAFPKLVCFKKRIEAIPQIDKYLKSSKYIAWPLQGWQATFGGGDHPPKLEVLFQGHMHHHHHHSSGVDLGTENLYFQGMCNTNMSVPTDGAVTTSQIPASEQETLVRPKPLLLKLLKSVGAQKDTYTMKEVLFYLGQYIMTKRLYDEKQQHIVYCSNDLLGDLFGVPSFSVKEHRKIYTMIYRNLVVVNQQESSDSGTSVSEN

[5] = Solubility assay (kinetic solubility, PBS pH 7); assay type: physicochemical; conditions: pH 7, aqueous buffer, kinetic from dmso stock, pH 7, PBS; read-out: Solubility
Summary of the method: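 Reference standards were made by diluting the 10 mM stock to 100 µM in acetonitrile:methanol:DMSO 10:80:10. Solubility in µM was calculated as the sample peak area divided by the standard peak area, multiplied by the standard concentration.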

in vitro = conditions: Nanoclick permeability assay EC50
Summary of the method: (§2)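 Azido-peptide permeability was read as loss of NanoBRET signal (donor 450 nm, acceptor 610 nm) after adding NanoBret618-azide at 10 μM final.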

[6] = tested on: cells transiently transfected with the NanoLuc-HaloTag vector; test: Nanoclick permeability assay; conditions: 4Hr
Summary of the method: as §2

[7] = Experimental LogD (partition coefficient); conditions: not stated, Partition Coeff LogD
[8] = 0% FBS 4Hr, read-out: p53 reporter assay: EC50
[9] = read-out: Cell EC50 (4 hr, 0% FBS), p53 reporter assay, 4 hr, 0% FBS
[10] = read-out: Cell EC50 (16 hr, 10% FBS), p53 reporter assay, 16 hr, 10% FBS
[11] = 0% FBS 4Hr, read-out: LDH: Cytotoxicity assay: EC50
[12] = 0% FBS 4Hr, read-out: TETCHO: Counterscreen EC50
[13] = 10% FBS 16Hr, read-out: TETCHO: Counterscreen EC50
[14] = 0% FBS 4Hr, read-out: p53 reporter assay EC50

CC(=O)N[C@@H](CCCCN=[N+]=[N-])C(=O)NCCC(=O)N[C@@H](CC(C)C)C(=O)N[C@H](C(=O)N[C@@H](Cc1ccccc1)C(=O)N[C@]1(C)CCCCCCn2cc(nn2)CCC[C@@](C)(C(=O)N[C@@H](CO)C(=O)N[C@@H](C)C(=O)N[C@@H](C)C(N)=O)NC(=O)[C@H](CC2CCC2)NC(=O)[C@H](CCC(N)=O)NC(=O)[C@H](C)NC(=O)[C@H](Cc2c[nH]c3ccccc23)NC(=O)[C@H](Cc2ccc(O)cc2)NC(=O)[C@H](CCC(=O)O)NC1=O)[C@@H](C)O [MP-707]
p53 reporter assay: % Effect ([1]; 0% FBS 4Hr): 101.9% | EC50 [1, 8]: 1.6 µM | p53 reporter assay: % Effect ([1]; 10% FBS 16Hr): 63.44% | EC50 ([1]; 10% FBS 16Hr, read-out: p53 reporter assay: EC50): 13.6 µM | EC50 [1, 9]: 1.6 µM | EC50 [1, 10]: 13.6 µM | EC50 [2, 11]: > 50.7 µM | EC50 ([2]; 10% FBS 16Hr, read-out: LDH: Cytotoxicity assay: EC50): > 50.7 µM | LDH: Cytotoxicity assay: % Effect (HCT116 cells; 0% FBS 4Hr): -2.492% | LDH: Cytotoxicity assay: % Effect (HCT116 cells; 10% FBS 16Hr): 13.49% | TETCHO: Counterscreen % Effect ([3]; 0% FBS 4Hr): -1.105% | EC50 [3, 12]: > 50.4 µM | TETCHO: Counterscreen % Effect ([3]; 10% FBS 16Hr): -2.89% | EC50 [3, 13]: > 50.4 µM | CD % Helicity [4]: 33.95%

CC(=O)N[C@@H](CC(C)C)C(=O)N[C@H](C(=O)N[C@@H](Cc1ccccc1)C(=O)N[C@]1(C)CCCCCCC=CCCC[C@@](C)(C(=O)N[C@@H](CO)C(=O)N[C@@H](C)C(=O)N[C@@H](C)C(N)=O)NC(=O)[C@H](CC2CCC2)NC(=O)[C@H](Cc2c[nH]cn2)NC(=O)[C@H](C)NC(=O)[C@H](Cc2c[nH]c3ccccc23)NC(=O)[C@H](Cc2ccc(O)cc2)NC(=O)[C@H](CCC(=O)O)NC1=O)[C@@H](C)O [MP-501, ATSP-7041 (Q8H)]
EC50 [1, 8]: 2.5 µM | EC50 ([1]; 0% FBS 16Hr, read-out: p53 reporter assay: EC50): 28.6 µM | EC50 [2, 11]: > 50 µM | LDH: Cytotoxicity assay: % Effect (HCT116 cells; 0% FBS 4Hr): 4.045% | TETCHO: Counterscreen % Effect ([3]; 0% FBS 4Hr): 216% | EC50 [3, 12]: 18.9 µM | TETCHO Counterscreen % Effect ([3]; 4 hours, 0% serum, efficacy at 50 μM relative to tetracycline control): 216% | EC50 ([3]; 4 hours, 0% serum, read-out: TETCHO Counterscreen EC50): 18.9 µM | CD % Helicity [4]: 29.1%

CC(C)C[C@H](NC(=O)CCNC(=O)[C@H](CCCCN=[N+]=[N-])NC(=O)CNC(=O)[C@H](CC(=O)O)NC(=O)[C@H](CC(C)C)NC(=O)[C@H](CCCCN)NC(=O)[C@@H](NC(=O)[C@H](CCCNC(=N)N)NC(=O)[C@H](CCCCN)NC(=O)[C@H](C)NC(=O)[C@H](C)NC(=O)[C@@H]1CCCN1)C(C)C)C(=O)N[C@H](C(=O)N[C@@H](Cc1ccccc1)C(=O)N[C@]1(C)CCCCCCC=CCCC[C@@](C)(C(=O)N[C@@H](CO)C(=O)N[C@@H](C)C(=O)N[C@@H](C)C(N)=O)NC(=O)[C@H](CC2CCC2)NC(=O)[C@H](CCC(N)=O)NC(=O)[C@H](C)NC(=O)[C@H](Cc2c[nH]c3ccccc23)NC(=O)[C@H](Cc2ccc(O)cc2)NC(=O)[C@H](CCC(=O)O)NC1=O)[C@@H](C)O [MP-879] (H-PAAKRVKLDG[Lys(N3)][βAla]LTF[R8]EYWAQ[Cba][S5]SAA-NH2; staple 16-23)
Kd (human Mdm2 1–125): 0.0386 µM | EC50 [1, 14]: 2.4 µM | EC50 ([1]; 0% FBS 16Hr, read-out: p53 reporter assay EC50): 1.14 µM | EC50 ([2]; LDH: Cytotoxicity assay EC50): > 50 µM | TETCHO: Counterscreen % Effect ([3]; 0% FBS 4Hr): 42.86% | EC50 [3, 12]: 35.8 µM | TETCHO: Counterscreen % Effect ([3]; 0% FBS 16Hr): 28.78% | EC50 ([3]; 0% FBS 16Hr, read-out: TETCHO: Counterscreen EC50): > 50 µM | solubility kinetic [5]: 162 µM (≈ 480 µg/mL) | cell entry EC50 (in vitro): 0.555 µM | Nanoclick permeability assay % Effect [6]: 134.8% | logD [7]: 2.38

CC(=O)N[C@@H](CC(C)C)C(=O)N[C@H](C(=O)N[C@@H](Cc1ccccc1)C(=O)N[C@]1(C)CCCCCCC=CCCC[C@@](C)(C(=O)N[C@@H](C)C(=O)N[C@@H](C)C(=O)N[C@@H](C)C(=O)N[C@@H](C)C(=O)N[C@@H](C)C(=O)N[C@@H](C)C(N)=O)NC(=O)[C@H](CC(C)C)NC(=O)[C@H](CCC(N)=O)NC(=O)[C@H](C)NC(=O)[C@H](Cc2c[nH]c3ccccc23)NC(=O)[C@H](Cc2ccc(O)cc2)NC(=O)[C@H](CCC(=O)O)NC1=O)[C@@H](C)O [MP-688] (Ac-LTF[R8]EYWAQL[S5]AAAAAA-NH2; staple 4-11)
EC50 [1, 14]: 0.157 µM | EC50 ([1]; 10% FBS 16Hr, read-out: p53 reporter assay EC50): 1.35 µM | EC50 [1, 9]: 0.16 µM | EC50 [1, 10]: 1.3 µM | EC50 ([2]; 0% FBS 4Hr, read-out: LDH: Cytotoxicity assay EC50): > 50.7 µM | EC50 ([2]; 10% FBS 16Hr, read-out: LDH: Cytotoxicity assay EC50): > 50.7 µM | EC50 [3, 12]: > 50.4 µM | EC50 [3, 13]: > 50.4 µM | CD % Helicity [4]: 49.8% | Aqueous solution helicity ([4]; circular dichroism): 49.8%
